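Dose response: 5 concentrations. Exposure: 48 h. Format: 96-well plates. Endpoint: linear interpolation; highest concentration if not reached. GI50 is the concentration that inhibits growth by half. TGI denotes the concentration required for complete inhibition of growth.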
Tests used:
Test in all cases: NCI-60 cell line screen, 48 h
[1] = system: NCI-H460 lung
[2] = system: NCI-H522 lung
[3] = system: NCI/ADR-RES ovarian
[4] = system: OVCAR-3 ovarian
[5] = system: OVCAR-4 ovarian
[6] = system: OVCAR-5 ovarian
[7] = system: OVCAR-8 ovarian
[8] = system: PC-3 prostate
[9] = system: RPMI-8226 leukemia
[10] = system: RXF 393 renal
[11] = system: SF-268 CNS
[12] = system: SF-295 CNS
[13] = system: SF-539 CNS
[14] = system: SK-MEL-2 melanoma
[15] = system: SK-MEL-28 melanoma
[16] = system: SK-MEL-5 melanoma
[17] = system: SK-OV-3 ovarian
[18] = system: SN12C renal
[19] = system: SNB-19 CNS
[20] = system: SNB-75 CNS
[21] = system: SR leukemia
[22] = system: SW-620 colon
[23] = system: T-47D breast
[24] = system: TK-10 renal
[25] = system: U251 CNS
[26] = system: UACC-257 melanoma
[27] = system: UACC-62 melanoma
[28] = system: UO-31 renal

Q: Which TGI [1] does the source give for `FC(F)(F)c1cccc(CNC2CCN(CCc3ccccc3)CC2)c1` here?
A: 39.6 µM

Q: What about the GI50 [2] of the same compound?
A: 20.9 µM

Q: And the TGI [2]?
A: 44.4 µM

Q: What about the GI50 [3] of the same compound?
A: 41.9 µM

Q: And the TGI [3]?
A: > 100 µM

Q: And the GI50 [4]?
A: 32.6 µM

Q: And the TGI [4]?
A: > 100 µM

Q: And the GI50 [5]?
A: 23.1 µM

Q: What about the TGI [5] of the same compound?
A: > 100 µM

Q: And the GI50 [6]?
A: 27.2 µM

Q: And the TGI [6]?
A: > 100 µM

Q: And the GI50 [7]?
A: 18.2 µM

Q: And the TGI [7]?
A: 43.8 µM

Q: And the GI50 [8]?
A: 32 µM

Q: And the TGI [8]?
A: > 100 µM

Q: What about the GI50 [9] of the same compound?
A: 22.6 µM

Q: What about the TGI [9] of the same compound?
A: 51.5 µM

Q: What about the GI50 [10] of the same compound?
A: 12.9 µM

Q: What about the TGI [10] of the same compound?
A: 39.5 µM

Q: And the GI50 [11]?
A: 40.3 µM

Q: And the TGI [11]?
A: > 100 µM

Q: What about the GI50 [12] of the same compound?
A: 17.2 µM

Q: What about the TGI [12] of the same compound?
A: 35.4 µM

Q: What about the GI50 [13] of the same compound?
A: 15.3 µM

Q: And the TGI [13]?
A: 30.2 µM

Q: And the GI50 [14]?
A: 23.5 µM

Q: And the TGI [14]?
A: 47.2 µM

Q: What about the GI50 [15] of the same compound?
A: 16 µM

Q: What about the TGI [15] of the same compound?
A: 31.7 µM

Q: What about the GI50 [16] of the same compound?
A: 12.3 µM

Q: What about the TGI [16] of the same compound?
A: 24.7 µM

Q: And the GI50 [17]?
A: 38.9 µM

Q: And the TGI [17]?
A: > 100 µM

Q: And the GI50 [18]?
A: 55.6 µM

Q: And the TGI [18]?
A: > 100 µM

Q: What about the GI50 [19] of the same compound?
A: 30.8 µM

Q: And the TGI [19]?
A: > 100 µM

Q: And the GI50 [20]?
A: 11.7 µM

Q: And the TGI [20]?
A: 33.6 µM

Q: What about the GI50 [21] of the same compound?
A: 15.1 µM

Q: What about the TGI [21] of the same compound?
A: 41.6 µM

Q: And the GI50 [22]?
A: 36.9 µM

Q: And the TGI [22]?
A: > 100 µM

Q: What about the GI50 [23] of the same compound?
A: 20 µM

Q: What about the TGI [23] of the same compound?
A: 52.9 µM

Q: What about the GI50 [24] of the same compound?
A: 30.7 µM

Q: What about the TGI [24] of the same compound?
A: > 100 µM

Q: And the GI50 [25]?
A: 15.6 µM

Q: And the TGI [25]?
A: 35.6 µM

Q: And the GI50 [26]?
A: 17.2 µM

Q: What about the TGI [26] of the same compound?
A: 33.4 µM

Q: And the GI50 [27]?
A: 13.9 µM

Q: What about the TGI [27] of the same compound?
A: 30.7 µM

Q: And the GI50 [28]?
A: 17 µM

Q: What about the TGI [28] of the same compound?
A: > 100 µM
